Several values for one entry are separate records, joined by “and”; a condition that tells them apart may be missing. Equal entries are not always repeated. Where two headings read alike, the source gives them in different places.
Columns and labels:
Human MSCs = assay: Human chondrocyte differentiation assay; assay type: cell-based; conditions: 7 days; type II collagen, Sox9 and COMP immunostaining
Protocol: Human MSCs (50,000) were plated into each well of a 96-well plate and cultured overnight. […] The cells were fixed with 10% formalin solution at room temperature for 10 min, and immunostained using antibodies specific for type II collagen (Abcam), Sox9 (Santa Cruz) and cartilage oligomeric matrix protein (COMP, Santa Cruz), and fluorescently labeled secondary antibodies (Li-Cor). The total intensity of the staining was measured using Oddyssey CLx imaging system (Li-Cor). Vehicle (DMSO) was used as control to determine the basal level of chondrocyte differentiation. The result is shown in Table 1 [A: >50% increase in staining intensity compared to vehicle control; B: 30-50% increase in staining intensity compared to vehicle control].

[1] = Final dose PK in the canine osteoarthritis study; assay type: in vivo, Beagle dogs
Protocol: Acetonitrile, water (Optima, LC/MS Grade) and formic acid, 99+% (Optima, LC/MS Grade) were purchased from Fisher Scientific. […] Chromatography HPLC column, Luna, 5 um C18 (2), 50×2.0 mm and its guard security cartridge and holder were purchased from Phenomenex. HPLC (1100 Series) was purchased from Agilent. The Mass Spectrometer system, API 3000 was purchased from SCIEX. Separation was performed on a reversed phase C18 column with a gradient elution using mobile phases of 0.1% formic acid in water (A) and 0.1% formic acid in acetonitrile (B) with flow rate at 0.6 mL/min.
Supernatant was then diluted with 0.1% formic acid in water solvent and injected onto LC-MS-MS system.
All animals were exercised 5 days a week for an hour for the duration of the study. At study day 10/11, animals began receiving weekly injections of either compound or vehicle into the surgerized joint. Blood samples were also taken pre-dose for all animals for compound determination. Animals received doses at day 10, 17, 24, 31, 38, and 45 post surgery. All intraarticular doses were standardized to 0.5 mL injections into the joint capsule via injection through the patellar ligament.
Female Beagles underwent medial meniscal tear surgery to induce osteoarthritis.

[2] = Intra-articular single dose pharmacokinetics study in rat; assay type: in vivo; conditions: for concentration in the knee: 1.05 μg/knee
in vivo [3] = assay: in vivo; parameters: species or system Crl:CD(SD) rat; conditions: rat; for half-life: t1/2
[4] = dog, in vivo
in vivo [5] = conditions: male, beagle, dog, 70 μg/knee/week
[6] = Intra-articular acute toxicity study in the Beagle dog (toxicokinetics); conditions: for Tlast / AUC(0-t) / Cmax: male dogs, plasma
[7] = female Beagles, 35 μg IA weekly, after 6th dose, plasma, individual animals 1-6
[8] = rat, plasma, 1.05 ug, single IA dose 1.05 μg/knee
[9] = female, Crl:CD(SD), iv, 0.25 mg/kg
[10] = female, Crl:CD(SD), iv, 0.75 mg/kg
[11] = female, Crl:CD(SD), iv, 2.5 mg/kg
[12] = male, Crl:CD(SD), iv, 0.25 mg/kg
[13] = male, Crl:CD(SD), iv, 0.75 mg/kg
[14] = male, Crl:CD(SD), iv, 2.5 mg/kg
[15] = dose increment of 2.9 fold (from 35 to 100 ng)
[16] = single IA 35 μg/knee, individual animals 41M, 42M
[17] = single IA 100 μg/knee, individual animals 43M, 44M
[18] = single IA 200 μg/knee, individual animals 45M, 46M

Which “Biological Activity (increase in staining intensity compared to vehicle control)” value (Human MSCs) does the source give for `COCCc1ccc(NC(=O)c2ccccc2NS(C)(=O)=O)cc1` [Compound A, N-(4-(2-methoxyethyl)phenyl)-2-(methylsulfonamido)benzamide] here?
The value was “A (>50% increase in staining intensity compared to vehicle control)”.

And the “plasma exposure after the final dose” value ([1]; 1 hour after IA administration)?
The value was “undetectable”.

What about the Cmax ([1]; female Beagles, 35 μg (0.035 mg/knee) IA weekly, after 6th dose, plasma, individual animals 1-6) of the same molecule?
The Cmax was 2.22 ng/mL and 2.64 ng/mL and 1.87 ng/mL and 2.26 ng/mL and 1.08 ng/mL and 1.54 ng/mL.

And the Tlast ([1]; female Beagles, 35 μg IA weekly, after 6th dose, plasma, Mean)?
Its Tlast is 2.3 h.

What about the “AUC 0-τ” value [1, 7] of the same molecule?
The value was 2.28 ng·h/mL and 3.14 ng·h/mL and 2.12 ng·h/mL and 3.58 ng·h/mL and 1.15 ng·h/mL and 1.87 ng·h/mL.

What about the Tlast [1, 7] of the same molecule?
The Tlast was 2.0 h (5×) and 4.0 h.

What about the AUC ([1]; female, beagle, dog, plasma, 0.035 mg/knee, female Beagles, 35 μg IA weekly, after 6th dose, plasma, Mean, read-out: AUC 0-τ) of the same molecule?
The AUC was 2.36 ng·h/mL.

And the Cmax ([1]; female, beagle, dog, plasma, 0.035 mg/knee, female Beagles, 35 μg IA weekly, after 6th dose, plasma, Mean, read-out: Cmax)?
The Cmax was 1.94 ng/mL.

And the “concentration in the knee” value ([2]; 120 minutes after single IA injection)?
The value was “LLQ”.

And the “concentration in the knee” value ([2]; immediately after single IA injection)?
The value was 925.5 ng/mL.

And the AUC(0-inf) [2, 8]?
The AUC(0-inf) was 33.9 ng·h/mL.

What about the Cmax [2, 8] of the same molecule?
Its Cmax is 53.3 ng/mL.

And the half-life ([2]; rat, plasma, 1.05 ug, single IA dose 1.05 μg/knee, read-out: plasma t1/2 (converted))?
The half-life was 28.9 min.

What about the “time up to which quantifiable in the plasma of all animals” value (in vivo [3]; both, Crl:CD(SD), iv) of the same molecule?
The value was “at least 4 hours”.

What about the AUC(0-t) (in vivo [3]; [9]) of the same molecule?
Its AUC(0-t) is 764 ng·h/mL.

What about the Cmax (in vivo [3]; [9]) of the same molecule?
Its Cmax is 1380 ng/mL.

What about the t1/2 (in vivo [3]; [9]) of the same molecule?
The t1/2 was 32.4 min.

And the AUC(0-t) (in vivo [3]; female, Crl:CD(SD), iv, 0.25 mg/kg, AUC0-t)?
Its AUC(0-t) is 871 ng·h/mL.

What about the Cmax (in vivo [3]; female, Crl:CD(SD), iv, 0.25 mg/kg, Cmax) of the same molecule?
Its Cmax is 1230 ng/mL.

What about the half-life (in vivo [3]; [9]) of the same molecule?
Its half-life is 34.8 min.

And the AUC(0-t) (in vivo [3]; [10])?
Its AUC(0-t) is 1920 ng·h/mL.

What about the Cmax (in vivo [3]; [10]) of the same molecule?
The Cmax was 4800 ng/mL.

And the t1/2 (in vivo [3]; [10])?
The t1/2 was 28.8 min.

And the AUC(0-t) (in vivo [3]; female, Crl:CD(SD), iv, 0.75 mg/kg, AUC0-t)?
The AUC(0-t) was 2250 ng·h/mL.

And the Cmax (in vivo [3]; female, Crl:CD(SD), iv, 0.75 mg/kg, Cmax)?
The Cmax was 3490 ng/mL.

And the half-life (in vivo [3]; [10])?
The half-life was 35.4 min.

What about the t1/2 (in vivo [3]; [11]) of the same molecule?
The t1/2 was 43.8 min.

And the half-life (in vivo [3]; [11])?
The half-life was 37.8 min.

What about the AUC(0-t) (in vivo [3]; [12]) of the same molecule?
Its AUC(0-t) is 633 ng·h/mL.

What about the Cmax (in vivo [3]; [12]) of the same molecule?
Its Cmax is 2060 ng/mL.

And the t1/2 (in vivo [3]; [12])?
The t1/2 was 25.2 min.

What about the AUC(0-t) (in vivo [3]; male, Crl:CD(SD), iv, 0.25 mg/kg, AUC0-t) of the same molecule?
The AUC(0-t) was 657 ng·h/mL.

And the Cmax (in vivo [3]; male, Crl:CD(SD), iv, 0.25 mg/kg, Cmax)?
The Cmax was 1940 ng/mL.

And the half-life (in vivo [3]; [12])?
Its half-life is 23.4 min.

What about the AUC(0-t) (in vivo [3]; [13]) of the same molecule?
The AUC(0-t) was 2160 ng·h/mL.

And the t1/2 (in vivo [3]; [13])?
The t1/2 was 25.8 min.

What about the AUC(0-t) (in vivo [3]; male, Crl:CD(SD), iv, 0.75 mg/kg, AUC0-t) of the same molecule?
Its AUC(0-t) is 3120 ng·h/mL.

And the half-life (in vivo [3]; [13])?
Its half-life is 37.8 min.

What about the t1/2 (in vivo [3]; [14]) of the same molecule?
The t1/2 was 42.6 min.

What about the half-life (in vivo [3]; [14]) of the same molecule?
The half-life was 38.4 min.

And the “gender differences in mean Cmax and mean AUC0-t” value (in vivo [3])?
The value was “no significant gender differences”.

What about the “differences in systemic exposure following single and repeated IV administration” value (in vivo [3]; iv) of the same molecule?
The value was “no significant”.

And the “time up to which quantifiable in the plasma of all animals” value ([4]; both, beagle, iv, 1.25 mg/kg)?
The value was “at least 12 hours”.

And the “gender differences in systemic exposure (Cmax and AUC0-t)” value [4]?
The value was “no significant gender differences”.

And the “differences in systemic exposure following single and repeat weekly IV administration” value ([4]; iv)?
Its value is “no significant differences”.

And the Cmax ([4]; female, Beagle, iv, 0.125 mg/kg)?
The Cmax was 209 ng/mL.

And the Cmax ([4]; female, Beagle, iv, 0.6 mg/kg)?
Its Cmax is 1190 ng/mL.

And the AUC(0-t) ([4]; female, Beagle, iv, 1.25 mg/kg)?
The AUC(0-t) was 2300 ng·h/mL.

And the Cmax ([4]; female, Beagle, iv, 1.25 mg/kg)?
The Cmax was 2480 ng/mL.

What about the AUC(0-t) ([4]; male, beagle, iv, 0.125 mg/kg) of the same molecule?
The AUC(0-t) was 211 ng·h/mL.

What about the Cmax ([4]; male, beagle, iv, 0.125 mg/kg) of the same molecule?
The Cmax was 197 ng/mL.

What about the AUC(0-t) ([4]; male, beagle, iv, 0.6 mg/kg) of the same molecule?
The AUC(0-t) was 1400 ng·h/mL.

And the Cmax ([4]; male, beagle, iv, 0.6 mg/kg)?
The Cmax was 1140 ng/mL.

What about the AUC(0-t) ([4]; male, beagle, iv, 1.25 mg/kg) of the same molecule?
Its AUC(0-t) is 2510 ng·h/mL.

And the Cmax ([4]; male, beagle, iv, 1.25 mg/kg)?
Its Cmax is 2150 ng/mL.

What about the AUC(0-t) (in vivo [5]) of the same molecule?
The AUC(0-t) was 13.8 ng·h/mL.

And the “concentrations in synovial fluid samples” value ([6]; at study termination, below the LLQ)?
The value was < 0.5 ng/mL.

What about the “increase in mean AUC0-t” value [6, 15] of the same molecule?
The value was 0.7 fold.

And the “increase in mean Cmax” value [6, 15]?
The value was 0.7 fold.

What about the “increase in mean AUC0-t” value ([6]; dose increment of 5.7 fold) of the same molecule?
Its value is “approximately 1.5 fold”.

What about the “increase in mean Cmax” value ([6]; dose increment of 5.7 fold) of the same molecule?
Its value is “approximately 1.5 fold”.

What about the Tlast ([6]; single IA 35 μg/knee, Mean) of the same molecule?
Its Tlast is 4.00 h.

What about the AUC(0-t) [6, 16] of the same molecule?
The AUC(0-t) was 5.41 ng·h/mL.

What about the Cmax [6, 16] of the same molecule?
The Cmax was 2.21 ng/mL.

What about the Tlast [6, 16] of the same molecule?
The Tlast was 4.00 h.

What about the Tlast ([6]; single IA 100 μg/knee, Mean) of the same molecule?
Its Tlast is 4.00 h.

And the AUC(0-t) [6, 17]?
The AUC(0-t) was 11.7 ng·h/mL.

What about the Cmax [6, 17] of the same molecule?
Its Cmax is 4.75 ng/mL.

What about the Tlast [6, 17] of the same molecule?
Its Tlast is 4.00 h.

What about the Tlast ([6]; single IA 200 μg/knee, Mean) of the same molecule?
The Tlast was 4.00 h.

And the AUC(0-t) [6, 18]?
The AUC(0-t) was 9.60 ng·h/mL.

What about the Cmax [6, 18] of the same molecule?
Its Cmax is 3.21 ng/mL.

And the Tlast [6, 18]?
The Tlast was 4.00 h.

And the AUC(0-t) ([6]; male, beagle, dog, 35 μg/knee, AUC0-t, single IA 35 μg/knee, Mean)?
Its AUC(0-t) is 5.31 ng·h/mL.

What about the AUC(0-t) ([6]; male, beagle, dog, 35 μg/knee, AUC0-t, single IA 35 μg/knee, individual animals 41M, 42M) of the same molecule?
Its AUC(0-t) is 5.21 ng·h/mL.

What about the Cmax ([6]; male, beagle, dog, 35 μg/knee, Cmax, single IA 35 μg/knee, Mean) of the same molecule?
Its Cmax is 2.17 ng/mL.

And the Cmax ([6]; male, beagle, dog, 35 μg/knee, Cmax, single IA 35 μg/knee, individual animals 41M, 42M)?
Its Cmax is 2.14 ng/mL.

And the AUC(0-t) ([6]; male, beagle, dog, 100 μg/knee, AUC0-t, single IA 100 μg/knee, Mean)?
The AUC(0-t) was 12.3 ng·h/mL.

What about the AUC(0-t) ([6]; male, beagle, dog, 100 μg/knee, AUC0-t, single IA 100 μg/knee, individual animals 43M, 44M) of the same molecule?
The AUC(0-t) was 13 ng·h/mL.

And the Cmax ([6]; male, beagle, dog, 100 μg/knee, Cmax, single IA 100 μg/knee, Mean)?
The Cmax was 4.59 ng/mL.

What about the Cmax ([6]; male, beagle, dog, 100 μg/knee, Cmax, single IA 100 μg/knee, individual animals 43M, 44M) of the same molecule?
The Cmax was 4.43 ng/mL.

And the AUC(0-t) ([6]; male, beagle, dog, 200 μg/knee, AUC0-t, single IA 200 μg/knee, Mean)?
Its AUC(0-t) is 8.89 ng·h/mL.

What about the AUC(0-t) ([6]; male, beagle, dog, 200 μg/knee, AUC0-t, single IA 200 μg/knee, individual animals 45M, 46M) of the same molecule?
The AUC(0-t) was 8.18 ng·h/mL.

And the Cmax ([6]; male, beagle, dog, 200 μg/knee, Cmax, single IA 200 μg/knee, Mean)?
Its Cmax is 3.01 ng/mL.

What about the Cmax ([6]; male, beagle, dog, 200 μg/knee, Cmax, single IA 200 μg/knee, individual animals 45M, 46M) of the same molecule?
The Cmax was 2.81 ng/mL.
